Test results reported in BindingDB's records for doi:10.7270/Q2VT1QQ4 (Burnham Center For Chemical Genomics, 2012).

Molecular target: T1, Xylosyl- and glucuronyltransferase LARGE1 (Homo sapiens, UniProt O95461)
T1 sequence (O95461 whole entry): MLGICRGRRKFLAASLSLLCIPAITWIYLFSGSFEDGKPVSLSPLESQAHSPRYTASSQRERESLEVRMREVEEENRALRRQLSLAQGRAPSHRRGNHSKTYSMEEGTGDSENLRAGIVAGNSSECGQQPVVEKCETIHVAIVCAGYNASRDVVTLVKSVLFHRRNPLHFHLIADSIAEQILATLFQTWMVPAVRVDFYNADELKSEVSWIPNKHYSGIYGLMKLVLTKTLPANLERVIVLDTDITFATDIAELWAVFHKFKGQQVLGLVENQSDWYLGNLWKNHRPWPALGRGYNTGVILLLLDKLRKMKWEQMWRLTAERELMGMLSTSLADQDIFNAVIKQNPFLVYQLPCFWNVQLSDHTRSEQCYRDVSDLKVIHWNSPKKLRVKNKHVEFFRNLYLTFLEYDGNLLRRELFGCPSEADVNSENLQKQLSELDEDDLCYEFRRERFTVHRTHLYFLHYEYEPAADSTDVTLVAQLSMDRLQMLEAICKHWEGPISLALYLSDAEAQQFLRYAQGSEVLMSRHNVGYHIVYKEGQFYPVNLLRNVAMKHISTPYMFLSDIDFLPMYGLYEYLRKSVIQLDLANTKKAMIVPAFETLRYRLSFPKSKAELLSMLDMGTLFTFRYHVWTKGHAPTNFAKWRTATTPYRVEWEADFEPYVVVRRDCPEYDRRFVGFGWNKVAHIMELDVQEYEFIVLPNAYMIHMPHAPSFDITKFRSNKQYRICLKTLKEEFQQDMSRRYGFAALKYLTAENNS

**Q.** For `Oc1c(Cl)c(N=Cc2ccco2)c(O)c2ccccc12` [2-chloranyl-3-(furan-2-ylmethylamino)naphthalene-1,4-dione], which EC50 is on record?
**A.** 4.97 µM
